Experimental data: patent EP4772498A1, “COMPOUND ACTING AS ANDROGEN RECEPTOR ANTAGONIST” (China Pharmaceutical University, priority 2023, dated 2025)
Marks after values point to notes of the source that are not given here.

Columns and labels:
AR = AR antagonistic activity: AR / PSA ARE1 luciferase reporter gene assay in transfected LNCaP cells stimulated with 1 nM DHT; format: cell-based; details: 24 h, normalised to 0.1% DMSO and 30 µM enzalutamide
Method: LNCaP cells were plated in a 6-well plate (Corning, 3516) at 8 × 10^5 cells/well.
AR and PSA ARE1 reporter gene plasmids (Bio (Anhui) Co., Ltd.) and transfection reagents Lipo3000 and P3000 (Lipofectamine™ 3000) (a total of 2.5 µg of plasmids, i.e., 1.25 µg of each plasmid, were added to each well) were left to stand and incubated for 10 min, and then 250 µL of the above transfection reagents were added dropwise to each well containing cells and co-incubated with the cells for 24 h.
The cells were washed with PBS, and the medium was replaced with a phenol red-free RPMI-1640 medium containing 5% carbon adsorption serum (or 10% fetal bovine serum and 1% penicillin and streptomycin). The cells were re-plated onto a 96-well plate (Corning, 3603) according to the number of cells plated (2 × 10^4 cells/well).
After cell plating, the test compound (or DMSO or positive control) was added. After at least 30 min of incubation, DHT (dihydrotestosterone) was added to the culture system at a final concentration of 1 nM. The culture system was then incubated in a carbon dioxide incubator.
Test compound: 10 mM stock solution, with a final concentration of 3.3 µM or 6.7 µM. Negative control: 0.1% DMSO. Positive control: 30 µM enzalutamide.
After the test compound (or DMSO or positive control) and DHT were co-incubated for 24 h, the luciferase signal was detected using the Vazyme Bright-Lite substrate. The medium was added at 70 µL/well, and the plate was shaken for 2 min, followed by reading of the luciferase signal.
Assay robustness was confirmed using the DMSO and low concentration control data: Ave_H = Ave(DMSO) [formula] Ave_L = Ave (30μMenzalutamide) [formula] Inhibition rate (%) = (Ave_H−Sample)/(Ave_H−Ave_L) × 100% [formula] Ave_H: the measurement of the negative control (0.1% DMSO); Ave_L: the measurement of the positive control (30 µM enzalutamide); Sample: the measurement of the test compound; The corresponding activity test results for the test compounds were specified in Table 1. Table 1. Corresponding activity test results for compounds disclosed herein

Whole blood stability = details: human
Method: 1 mM stock solutions of the test compounds were prepared in DMSO, and a 1 mM stock solution of the reference compound propantheline was prepared in acetonitrile.
4 µL of test compound (or reference compound) stock solution was added to 796 µL of pre-incubated human blood (whole blood) at a final concentration of 5 µM. The final concentration of the solvent was 0.5%. At different time points (including 5 min, 15 min, 30 min, 60 min, and 120 min), a 50 µL aliquot of the whole blood containing the sample was added to a new tube and incubated in a 37 °C water bath with shaking at 60 rpm. The treatment was performed in duplicate. At designated time points, 300 µL of room-temperature quenching solution (a solution of acetonitrile containing internal standards (100 nM alprazolam, 500 nM labetalol, and 2 µM ketoprofen)) was added to the whole blood sample containing the sample to terminate the reaction. 50 µL of whole blood containing the sample was added to a new tube containing 300 µL of room-temperature quenching solution to prepare a sample at 0 min. All samples were vortexed for 5 min. The samples in the plate were centrifuged at 3220 g for 30 min at 4 °C to precipitate the proteins. 100 µL of the supernatant was transferred to a new 96-well plate containing 100 µL of water for LC-MS/MS analysis.
The peak area ratio was determined by using an extracted ion chromatogram. The proportion of remaining compound at each time point was calculated according to the following formula: Remaning proporion t min (%) = peak area ratio t min / peak area ratio 0 min × 100% [formula] • Peak area ratio t min: peak area ratio of reference compound to test compound at t min; • Peak area ratio 0 min: peak area ratio of reference compound to test compound at time zero.
The slope value was determined by linear regression on the curve of the natural logarithm of the remaining proportion of the test compound versus the incubation time.
Determination of in vitro half-life (in vitro t1/2) from the slope value: in vitro t1/2 = 0.693/k [formula] in the formula, k is the rate constant (k = -slope value)

[1] = Metabolic stability assay in liver microsomes; format: in vitro ADME; details: human liver microsomes, pH 7.4, human liver microsome 0.5 mg/mL, 1 mM NADPH, compound 1 µM, 37 °C; for microsomal CLint at 1 µM: read-out: In vitro Clint; for half-life at 1 µM: read-out: In vitro T1/2
Method: The metabolic stability of compounds disclosed herein in liver microsomes was determined using the following method.
• 1. Liver microsome source: Human liver microsome (Corning, 452117) • 2. Na2HPO4 (Tianjin Guangfu Fine Chemical Research Institute, 20180130) • 3. KH2PO4 (Tianjin Guangfu Fine Chemical Research Institute, 20180920) • 4. MgCl2 (Tianjin Guangfu Fine Chemical Research Institute, 20191216) • 5. NADPH (Solarbio, 1216C022) • 6. Positive control compound verapamil (Sigma, MKBV4993V) • 7. AB Sciex Triple Quad 4000 liquid chromatography-mass spectrometry system
1. Preparation of 100 mM phosphate-buffered saline (PBS): 7.098 g Na2HPO4 was dissolved in 500 mL of purified water by sonication to give solution A. 3.400 g of KH2PO4 was dissolved in 250 mL of purified water by sonication to give solution B. Solution A was placed on a stirrer, and solution B was added slowly until the pH reached 7.4, so as to give a 100 mM PBS buffer. 2. Preparation of reaction system The reaction system was prepared according to the table below.
3. The reaction system was pre-incubated in a 37 °C water bath for 10 min. 40 µL of 10 mM NADPH solution (NADPH was dissolved in 100 mM phosphate-buffered saline) was added to the reaction system, with the final concentration of NADPH being 1 mM. A negative control was prepared by replacing the NADPH solution with 40 µL of phosphate-buffered saline. The negative control was used to exclude the effect of the chemical stability of the compound itself. 4. The reaction was initiated by adding 4 µL of 100 µM compound disclosed herein or positive control compound verapamil to the reaction system at a final concentration of 1 µM. 5. After 0.5 min, 15 min, 30 min, 45 min, and 60 min of mixing well by using a vortex oscillator, 50 µ L of the incubated sample was taken out, and glacial acetonitrile containing an internal standard of 4 folds was added to terminate the reaction. The sample was centrifuged at 3,220 g for 45 min. 90 µL of the supernatant was transferred to a feeding plate after the centrifugation was completed, and 90 µL ultrapure water was added. The mixture was well mixed for LC-MS/MS analysis.
All data were calculated by using Microsoft Excel software. The peak areas were determined by using an extracted ion chromatogram. The in vitro half-life (T1/2) of the test compound was determined by linear fitting of the natural logarithm of the elimination proportion of the test compound over time. In vitro half-life (T1/2) was calculated by the slope k: in vitro T1/2 = 0.693/k [formula]
The in vitro intrinsic clearance (in vitro CLint, unit: µL/min/mg protein) was calculated using the following formula: in vitro CLint = k × volume of incubation solution/enzyme protein content; [formula]

C57BL/6 mice = test: In vivo pharmacodynamic study 1: hair growth scoring in shaved telogen-phase mice, topical treatment; details: for Score (mean±SD): hair growth score 0-5, topical twice daily, compound 001 2 wt%, compound 008 0.5 wt%
Source text: Vehicle: propylene glycol/ethanol (30:70, v/v)
Animal information: C57BL/6 mice (male, aged 4-6 weeks, about 18-20 g), purchased from Shanghai Lingchang Biotechnology Co., Ltd. The mice were bred in an SPF-level environment within independently ventilated cages.
Skin preparation: After 1-2 weeks of acclimation, the hairs in a 2 cm × 3 cm area of the back of the mice were shaved to confirm that the hairs of the mice were in the telogen phase (the skin was pink) and the skin was not damaged.
Treatment: On day 3 after shaving, the mice were grouped for treatment. […] The control group received the control solvent. 12 mice were in each group.
The mice were weighed on days 10, 13, 18, 21, 25, and 30, and the hair growth state was scored and photographed.
The scoring criteria are as follows: • 0: no growth, with pink skin in the shaved area; • 1: the skin in the shaved area was gray (an increase of less than 20%); • 2: the skin in the shaved area was black (more than 20% but less than 40%); • 3: the skin in the shaved area was black with a little hair growth (more than 40% but less than 60%); • 4: the skin in the shaved area was black with partial hair growth (more than 60% but less than 80%); • 5: basically complete hair growth (80%-100% growth) in the shaved area.

[2] = treatment concentration: 3.3 µM
[3] = at the investigated doses (001 2%, 008 0.5%, BID topical)
[4] = treatment concentration: 6.7 µM

For CC(C)OC(=O)C(C)(O)C(=O)Nc1cnc(C#N)c(C(F)(F)F)c1 (stereo not drawn) [Compound 013, Isopropyl 3-[[6-cyano-5-(trifluoromethyl)-pyridin-3-yl]amino]-2-hydroxy-2-methyl-3-oxopropanoate], the “AR antagonism (inhibition rate, %)” value (AR; [2]) was 90.0^a % and the half-life at 5 µM (Whole blood stability) was 349 min.
For CCOC(=O)[C@](C)(O)C(=O)Nc1cnc(C#N)c(C(F)(F)F)c1 [Compound 003, ethyl (2R)-3-[[6-cyano-5-(trifluoromethyl)pyridin-3-yl]amino]-2-hydroxy-2-methyl-3-oxopropanoate], the “AR antagonism (inhibition rate, %)” value (AR; [2]) was 75.26^a %, the microsomal CLint at 1 µM [1] was 60.4 µL/min/mg and the half-life at 1 µM [1] was 22.9 min.
With CCCCOC(=O)C(C)(O)C(=O)Nc1ccc(C#N)c(C(F)(F)F)c1 (stereo not drawn) [Compound 022, Butyl 3-[4-cyano-3-(trifluoromethyl)anilino]-2-hydroxy-2-methyl-3-oxo-propanoate] the “AR antagonism (inhibition rate, %)” value (AR; [2]) was 81.05^a %.
In the case of CCOC(=O)C(O)(C(=O)Nc1cnc(C#N)c(C(F)(F)F)c1)C(F)(F)F (stereo not drawn) [Compound 008, Ethyl 2-[[6-cyano-5-(trifluoromethyl)-pyridin-3-yl]carbamoyl]-3,3,3-trifluoro-2-hydroxypropanoate], the “AR antagonism (inhibition rate, %)” value (AR; [2]) is reported as 86.95^a %, the “Score (mean±SD)” value (C57BL/6 mice; Day 0) is reported as 0 and the “Score (mean±SD)” value (C57BL/6 mice; Day 10) is reported as 0.4±0.5. The “Score (mean±SD)” value (C57BL/6 mice; Day 13) was 0.6±0.5, the “Score (mean±SD)” value (C57BL/6 mice; Day 18) was 1.0±0.6 and the “Score (mean±SD)” value (C57BL/6 mice; Day 21) was 1.1±0.7. The “Score (mean±SD)” value (C57BL/6 mice; Day 25) was 1.9±1.5, the “Score (mean±SD)” value (C57BL/6 mice; Day 30) was 2.8±2.1 and the “impact on the body weight of the mice” value (C57BL/6 mice; [3]) was “no significant impact”. The “signs of erythema, dehiscence, desquamation, and the like on the skin” value (C57BL/6 mice; [3]) was “no signs”, the “effect on mouse hair growth” value (C57BL/6 mice; compound 001 at 2%, compound 008 at 0.5%, BID topically at 20 µL/cm^2) was “significant promoting effect” and the “day of the treatment from which hair growth was significantly promoted” value (C57BL/6 mice; vs. vehicle control, 001 P < 0.01, 008 P < 0.05) was no less than 13 days. For the same molecule, the microsomal CLint at 1 µM [1] was 35.5 µL/min/mg and the half-life at 1 µM [1] was 39.1 min.
With CCCOC(=O)[C@@](C)(O)C(=O)Nc1cnc(C#N)c(C(F)(F)F)c1 [Compound 004, Propyl (2S)-3-[[6-cyano-5-(trifluoromethyl)-pyridin-3-yl]amino]-2-hydroxy-2-methyl-3-oxopropanoate] the “AR antagonism (inhibition rate, %)” value (AR; [2]) was 87.30^a %.
With COc1cc(NC(=O)C(C)(O)C(=O)OC(C)(C)C)cnc1C#N (stereo not drawn) [Compound 048, tert-Butyl 3-[(6-cyano-5-methoxypyridin-3-yl)amino]-2-hydroxy-2-methyl-3-oxo-propanoate] the “AR antagonism (inhibition rate, %)” value (AR; [4]) was 62.18^b %.
With CCOC(=O)C(O)(C(=O)Nc1ccc(C#N)c(SC)c1F)C(F)(F)F (stereo not drawn) [Compound 015, Ethyl 2-[(4-cyano-2-fluoro-3-methylsulfanyl-phenyl)carbamoyl]-3,3,3-trifluoro-2-hydroxy-propanoate] the “AR antagonism (inhibition rate, %)” value (AR; [2]) was 65.06^a %.
For CCCCOC(=O)[C@@](C)(O)C(=O)Nc1cnc(C#N)c(C(F)(F)F)c1 [Compound 006, butyl (2S)-3-[[6-cyano-5-(trifluoromethyl)pyridin-3-yl]amino]-2-hydroxy-2-methyl-3-oxopropanoate], the “AR antagonism (inhibition rate, %)” value (AR; [2]) was 93.92^a %.
In the case of CCOC(=O)c1cccc(NC(=O)C(C)(O)C(=O)Nc2cnc(C#N)c(C(F)(F)F)c2)n1 (stereo not drawn) [Compound 032, Ethyl 6-(3-((6-cyano-5-(trifluoromethyl)pyridin-3-yl)amino)-2-hydroxy-2-methyl-3-oxopropanamido)picolinate], the “AR antagonism (inhibition rate, %)” value (AR; [2]) is reported as 47.7^a %.
With CCCOC(=O)C(O)(C(=O)Nc1cnc(C#N)c(C(F)(F)F)c1)C(F)(F)F (stereo not drawn) [Compound 010, Propyl 2-[[6-cyano-5-(trifluoromethyl)-pyridin-3-yl]carbamoyl]-3,3,3-trifluoro-2-hydroxypropanoate] the “AR antagonism (inhibition rate, %)” value (AR; [2]) was 82.14^a %.
In the case of CCCCOC(=O)C(C)(O)C(=O)Nc1ccc(Cl)c(C(F)(F)F)c1 (stereo not drawn) [Compound 023, Butyl 3-[4-chloro-3-(trifluoromethyl)anilino]-2-hydroxy-2-methyl-3-oxo-propanoate], the “AR antagonism (inhibition rate, %)” value (AR; [2]) is reported as 52.26^a %.
In the case of CCCOC(=O)[C@](C)(O)C(=O)Nc1cnc(C#N)c(C(F)(F)F)c1 [Compound 005, propyl (2R)-3-[[6-cyano-5-(trifluoromethyl)-pyridin-3-yl]amino]-2-hydroxy-2-methyl-3-oxopropanoate], the “AR antagonism (inhibition rate, %)” value (AR; [2]) is reported as 58.52^a %.
With CCOC(=O)[C@@](C)(O)C(=O)Nc1cnc(C#N)c(C(F)(F)F)c1 [Compound 002, Ethyl (2S)-3-[[6-cyano-5-(trifluoromethyl)pyridin-3-yl]amino]-2-hydroxy-2-methyl-3-oxopropanoate] the “AR antagonism (inhibition rate, %)” value (AR; [2]) was 89.16^a %, the microsomal CLint at 1 µM [1] was 32.5 µL/min/mg and the half-life at 1 µM [1] was 42.6 min.
Molecule CCOC(=O)C(C)(O)C(=O)Nc1cnc(C#N)c(SC)c1 (stereo not drawn) [Compound 016, Ethyl 3-[(6-cyano-5-methylthio-pyridin-3-yl)amino]-2-hydroxy-2-methyl-3-oxopropanoate] has a microsomal CLint at 1 µM [1] of 102 µL/min/mg and a half-life at 1 µM [1] of 13.6 min.
In the case of CCCCOC(=O)C(O)(C(=O)Nc1cnc(C#N)c(C(F)(F)F)c1)C(F)(F)F (stereo not drawn) [Compound 011, Butyl 2-[[6-cyano-5-(trifluoromethyl)-pyridin-3-yl]carbamoyl]-3,3,3-trifluoro-2-hydroxypropanoate], the “AR antagonism (inhibition rate, %)” value (AR; [2]) is reported as 88.48^a %.
With CC(C)(C)OC(=O)C(C)(O)C(=O)Nc1cnc(C#N)c(C(F)(F)F)c1 (stereo not drawn) [Compound 014, tert-Butyl 3-[[6-cyano-5-(trifluoromethyl)-pyridin-3-yl]amino]-2-hydroxy-2-methyl-3-oxopropanoate] the “AR antagonism (inhibition rate, %)” value (AR; [2]) was 90.3^a %.
For CSc1cc(NC(=O)C(C)(O)C(=O)OC(C)(C)C)cnc1C#N (stereo not drawn) [Compound 049, tert-Butyl 3-[(6-cyano-5-methylthiopyridin-3-yl)amino]-2-hydroxy-2-methyl-3-oxo-propanoate], the “AR antagonism (inhibition rate, %)” value (AR; [4]) was 90.02^b %.
